Data on 1 compound can be found in PMC11335192, “Unveiling the crucial role of betaine: modulation of GABA homeostasis via SLC6A1 transporter (GAT1)” (Cellular and Molecular Life Sciences: CMLS, 2024).

Common to all, as to format: cell-based
For experiment [1], the target named is T1, rat GAT1 (rGAT1) (Rattus norvegicus, UniProt P23978).
T1 construct: gene Slc6a1
As to the kind of experiment: TEVC transport currents in Xenopus oocytes; LC-MS/MS uptake; [3H]-GABA efflux in HEK293-rGAT1 cells.

In experiment [2] the target is T2, canine BGT-1 (cBGT-1) (Canis lupus, UniProt P27799).
T2 construct: gene SLC6A12
T2 sequence (P27799 1-614): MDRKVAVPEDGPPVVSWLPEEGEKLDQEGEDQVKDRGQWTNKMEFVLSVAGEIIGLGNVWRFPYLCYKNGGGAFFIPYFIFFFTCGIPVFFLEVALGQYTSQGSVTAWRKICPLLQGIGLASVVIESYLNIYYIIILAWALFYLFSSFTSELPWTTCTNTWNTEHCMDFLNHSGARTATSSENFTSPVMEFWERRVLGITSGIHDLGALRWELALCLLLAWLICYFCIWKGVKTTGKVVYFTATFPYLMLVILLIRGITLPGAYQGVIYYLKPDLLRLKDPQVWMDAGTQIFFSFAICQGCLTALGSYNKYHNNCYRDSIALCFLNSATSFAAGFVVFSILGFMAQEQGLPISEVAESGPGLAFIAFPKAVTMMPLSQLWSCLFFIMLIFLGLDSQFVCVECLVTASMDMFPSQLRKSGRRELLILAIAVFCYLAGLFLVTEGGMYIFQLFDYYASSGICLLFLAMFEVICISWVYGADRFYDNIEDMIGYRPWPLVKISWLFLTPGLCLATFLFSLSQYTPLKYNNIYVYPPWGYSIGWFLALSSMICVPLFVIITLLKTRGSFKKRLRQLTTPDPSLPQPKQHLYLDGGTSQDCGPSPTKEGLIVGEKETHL
Briefly: TEVC transport currents in Xenopus oocytes.

The target of experiment [3] is T3, human GAT1 (hGAT1) (Homo sapiens, UniProt P30531).
T3 construct: gene SLC6A1
T3 sequence (P30531 whole entry): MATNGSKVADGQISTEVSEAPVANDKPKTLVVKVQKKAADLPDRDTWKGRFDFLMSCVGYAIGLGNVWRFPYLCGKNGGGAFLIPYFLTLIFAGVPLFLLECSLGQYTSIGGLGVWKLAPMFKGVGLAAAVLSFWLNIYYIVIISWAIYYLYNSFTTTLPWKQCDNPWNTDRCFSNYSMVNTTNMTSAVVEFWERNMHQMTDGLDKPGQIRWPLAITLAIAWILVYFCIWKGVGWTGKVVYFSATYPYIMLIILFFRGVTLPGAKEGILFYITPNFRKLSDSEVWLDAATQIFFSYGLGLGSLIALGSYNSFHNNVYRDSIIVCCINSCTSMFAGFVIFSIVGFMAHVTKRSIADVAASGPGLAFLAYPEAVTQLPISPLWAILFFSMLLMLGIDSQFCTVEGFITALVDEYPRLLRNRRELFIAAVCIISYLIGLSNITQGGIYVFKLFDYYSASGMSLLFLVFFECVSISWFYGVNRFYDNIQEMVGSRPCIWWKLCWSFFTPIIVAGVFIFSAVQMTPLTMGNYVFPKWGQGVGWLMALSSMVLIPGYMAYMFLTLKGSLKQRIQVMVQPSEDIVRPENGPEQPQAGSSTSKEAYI
As to the kind of experiment: automated whole-cell patch clamp (Patchliner) on CHO cells overexpressing hGAT1. (Patch clamp records ionic current or voltage across a cell membrane.)

As a reminder, the EC50 is the concentration giving half of the maximal effect. A low value points to higher potency in that assay. As for `C[N+](C)(C)CC(=O)O` [Betaine], the EC50 is 11.6 mM in experiment [1], 1.69 mM in experiment [2] and roughly 27 mM in experiment [3].
